{
  "source": "patent US6956037B2",
  "about": "“Benzamide derivatives for the treatment of diseases mediated by cytokines” (AstraZeneca AB, priority 1998, dated 2005)",
  "key": {"[1]": {"test_system": "TNFα production by human whole blood", "assay": "Human Whole Blood test: inhibition of LPS-stimulated TNFα production", "type": "cell-based", "method": "The ability of the compounds of this invention to inhibit TNFα production was also assessed in a human whole blood assay. Human whole blood secretes TNFα when stimulated with LPS. This property of blood forms the basis of an assay which is used as a secondary test for compounds which profile as active in the PBMC test.\nHeparinised (10 units/ml) human blood was obtained from volunteers. 160 μl whole blood were added to 96 well round-bottom plates (Corning 25850). Compounds were solubilised and serially diluted in RPMI 1640 medium (Gibco) supplemented with 50 units/ml penicillin 50 μg/ml streptomycin and 2 mM glutamine, as detailed above. 20 μl of each test concentration was added to appropriate wells (triplicate cultures). 20 μl of RPMI 1640 medium supplemented with antibiotics and glutamine was added to control wells. Plates were incubated for 30 minutes at 37° C. (humidified incubator), prior to addition of 20 μl LPS (final concentration 10 μg/ml). RPMI 1640 medium was added to control wells. Six “LPS alone” and four “medium alone” controls were included on each plate. A known TNFα synthesis/secretion inhibitor was included in each test. Plates were incubated for 6 hours at 37° C. (humidified incubator). […] TNFα levels were measured by ELISA (see WO92/10190 and Current Protocols in Molecular Biology, vol 2 by Frederick M. Ausbel et al., John Wiley and Sons Inc.). […]"}, "p38α": {"target": "T1, p38α (Homo sapiens, UniProt Q16539)", "T1 construct": "c-myc (N); 6His (N); made in house; host or cells: E. coli (PET vectors)", "T1 sequence (Q16539 whole entry, canonical isoform)": "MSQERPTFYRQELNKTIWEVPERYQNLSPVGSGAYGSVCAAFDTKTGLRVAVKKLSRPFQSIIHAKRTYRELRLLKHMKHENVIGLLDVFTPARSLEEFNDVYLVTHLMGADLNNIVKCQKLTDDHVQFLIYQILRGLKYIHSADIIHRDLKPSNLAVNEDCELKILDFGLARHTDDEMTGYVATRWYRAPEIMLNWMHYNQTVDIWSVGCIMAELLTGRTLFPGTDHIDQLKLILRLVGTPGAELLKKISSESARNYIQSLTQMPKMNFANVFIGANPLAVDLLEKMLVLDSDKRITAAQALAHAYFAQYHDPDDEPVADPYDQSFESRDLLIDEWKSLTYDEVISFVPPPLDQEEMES", "assay": "In vitro enzyme assay, p38 kinase inhibition", "type": "biochemical", "conditions": "read-out: IC50 against p38α", "method": "The ability of compounds of the invention to inhibit the enzyme p38 kinase was assessed. Activity of test compounds against each of the p38α and p38β isoforms of the enzyme was determined. […]\nTest compounds were solubilised in DMSO and 10 μl of a 1:10 diluted sample in ‘Kinase Buffer’ was added to a well in a Microtiter plate. […] The precipitated protein was phosphorylated by p38 kinase and test compounds were assessed for their ability to inhibit this phosphorylation. The plates were filtered using a Canberra Packard Unifilter and washed with 2% TCA, dried overnight and counted on a Top Count scintillation counter.\nTest compounds were tested initially at a single dose and active compounds were retested to allow IC50 values to be determined."}, "[2]": {"test_system": "TNFα production by human peripheral blood mononuclear cells", "assay": "PBMC test: inhibition of LPS-stimulated TNFα production", "type": "cell-based", "method": "The ability of compounds of this invention to inhibit TNFα production was assessed by using human peripheral blood mononuclear cells which synthesise and secrete TNFα when stimulated with lipopolysaccharide.\nPeripheral blood mononuclear cells (PBMC) were isolated from heparinised (10 units/ml heparin) human blood by density centrifugation (Lymphoprep™; Nycomed). Mononuclear cells were resuspended in culture medium [RPMI 1640 medium (Gibco) supplemented with 50 units/ml penicillin, 50 μg/ml streptomycin, 2 mM glutamine and 1% heat-inactivated human AB serum (Sigma H-1513)]. Compounds were solubilised in DMSO at a concentration of 50 mM, diluted 1:100 in culture medium and subsequently serial dilutions were made in culture medium containing 1% DMSO. PBMCs (2.4×10^5 cells in 160 μl culture medium) were incubated with 20 μl of varying concentrations of test compound (triplicate cultures) or 20 μl culture medium containing 1% DMSO (control wells) for 30 minutes at 37° C. in a humidified (5% CO2/95% air) incubator (Falcon 3072; 96 well flat-bottom tissue culture plates). […] TNFα levels were determined in each sample using a human TNFα ELISA (see WO92/10190 and Current Protocols in Molecular Biology, vol 2 by Frederick M/Ausbel et al., John Wiley and Sons Inc.). […]"}},
  "data": [
    {"smiles": "Cc1ccc(NC(=O)c2cccc(N(C)C)c2)cc1NC(=O)c1ccc(N(C)CCCN(C)C)cc1", "note": "[Example 36, N-[5-(3-dimethylaminobenzamido)-2-methylphenyl]-4-(3-dimethylamino-N-methylpropylamino)benzamide]", "values": [
      {"measurement": "melting point", "value": "178 to 179", "unit": "°C"}
    ]},
    {"smiles": "CCCS(=O)(=O)Nc1cccc(C(=O)Nc2cc(NC(=O)c3cccc(N4CCOCC4)c3)ccc2C)c1", "note": "[Example 62, N-[2-methyl-5-(3-morpholinobenzamido)phenyl]-3-(N-ethylmethanesulphonylamino)benzamide]", "values": [
      {"measurement": "melting point", "value": "192 to 193", "unit": "°C"}
    ]},
    {"smiles": "COc1ccc(C(=O)Nc2cc(NC(=O)c3ccc(OCCN4CCCC4)cc3)ccc2C)cc1OC", "note": "[Example 4, N-{5-[4-(2-pyrrolidin-1-ylethoxy)benzamido]-2-methylphenyl}-3,4-dimethoxybenzamide]", "values": [
      {"measurement": "melting point", "value": "165 to 166", "unit": "°C"}
    ]},
    {"smiles": "COc1ccc(C(=O)Nc2cc(NC(=O)c3ccc(OCCCN4CCOCC4)cc3)ccc2C)cc1OC", "note": "[Example 5, Compound No. 3, N-{2-methyl-5-[4-(3-morpholinopropoxy)benzamido]phenyl}-3,4-dimethoxybenzamide]", "values": [
      {"measurement": "melting point", "value": "148 to 149", "unit": "°C"}
    ]},
    {"smiles": "Cc1ccc(NC(=O)c2cccc(N3CCOCC3)c2)cc1NC(=O)c1cccc(OCCN2CCCC2)c1", "note": "[Example 7, Compound No. 19, N-[2-methyl-5-(3-morpholinobenzamido)phenyl]-3-(2-pyrrolidin-1-ylethoxy)benzamide]", "values": [
      {"measurement": "IC50", "setting": "[1]", "value": "~6", "unit": "µM"},
      {"measurement": "IC50", "setting": "p38α", "value": "~0.1", "unit": "µM"},
      {"measurement": "IC50", "setting": "[2]", "value": "~1", "unit": "µM"}
    ]},
    {"smiles": "Cc1ccc(NC(=O)c2cccc(N(C)C)c2)cc1NC(=O)c1cccc(NS(C)(=O)=O)c1", "note": "[Example 27, N-[5-(3-dimethylaminobenzamido)-2-methylphenyl]-3-methanesulphonylaminobenzamide]", "values": [
      {"measurement": "melting point", "value": "239 to 240", "unit": "°C"}
    ]},
    {"smiles": "COCCOc1ccc(C(=O)Nc2cc(NC(=O)c3ccc(C#N)cc3)ccc2C)cc1", "note": "[Example 8, N-[5-(4-cyanobenzamido)-2-methylphenyl]-4-(2-methoxyethoxy)benzamide]", "values": [
      {"measurement": "IC50", "setting": "p38α", "value": "~0.1", "unit": "µM"},
      {"measurement": "IC50", "setting": "[2]", "value": "~3", "unit": "µM"}
    ]},
    {"smiles": "COc1ccc(C(=O)Nc2cc(NC(=O)c3cccc(OCC(=O)O)c3)ccc2C)cc1OC", "note": "[Example 18, N-[5-(3-carboxymethoxybenzamido)-2-methylphenyl]-3,4-dimethoxybenzamide]", "values": [
      {"measurement": "melting point", "value": "206 to 207", "unit": "°C"}
    ]},
    {"smiles": "Cc1ccc(NC(=O)c2cccc(N(C)C)c2)cc1NC(=O)c1ccccc1NCCCN1CCOCC1", "note": "[Example 35, N-[5-(3-dimethylaminobenzamido)-2-methylphenyl]-2-(3-morpholinopropylamino)benzamide]", "values": [
      {"measurement": "melting point", "value": "239 to 240", "unit": "°C"}
    ]},
    {"smiles": "COc1ccc(C(=O)Nc2cc(NC(=O)c3ccc(OCCCCl)cc3)ccc2C)cc1OC", "note": "[Example 3, N-{5-[4-(3-chloropropoxy)benzamido]-2-methylphenyl}-3,4-dimethoxybenzamide]", "values": [
      {"measurement": "melting point", "value": "186 to 187", "unit": "°C"}
    ]},
    {"smiles": "CCS(=O)(=O)Nc1cccc(C(=O)Nc2ccc(C)c(NC(=O)c3ccc(OC)c(OC)c3)c2)c1", "note": "[Example 26, N-{5-[3-(N-methylmethanesulphonylamino)benzamido]-2′-methylphenyl}-3,4-dimethoxybenzamide]", "values": [
      {"measurement": "melting point", "value": "168 to 169", "unit": "°C"}
    ]},
    {"smiles": "COc1ccc(C(=O)Nc2cc(NC(=O)c3ccc(N(C)CCCN(C)C)cc3)ccc2C)cc1OC", "note": "[Example 20, N-{5-[4-(N-(3-dimethylaminopropyl)-N-methylamino)benzamido]-2-methylphenyl}-3,4-dimethoxybenzamide]", "values": [
      {"measurement": "melting point", "value": "164 to 165", "unit": "°C"}
    ]},
    {"smiles": "Cc1ccc(NC(=O)c2cccc(N3CCOCC3)c2)cc1NC(=O)c1cccc(OC2CCNCC2)c1", "note": "[Example 25, N-[2-methyl-5-(3-morpholinobenzamido)phenyl]-3-piperidin4-yloxybenzamide]", "values": [
      {"measurement": "melting point", "value": "162 to 166", "unit": "°C"}
    ]},
    {"smiles": "COc1ccc(C(=O)Nc2cc(NC(=O)c3cccc(NS(C)(=O)=O)c3)ccc2C)cc1OC", "note": "[Example 1, N-[5-(3-methanesulphonylaminobenzamido)-2-methylphenyl]-3,4-dimethoxybenzamide]", "values": [
      {"measurement": "melting point", "value": "> 300", "unit": "°C"}
    ]}
  ]
}
